Measured values as given in patent publication US11780832B2, “Lactivicin compounds, their preparation and use as antibacterial agents” (priority 2021, dated 2023).
≈ marks a conversion by molar mass, not a printed value.

What was measured:
Format in all cases: cell-based
[1] = test system: Citrobacter freundii species complex Elevated AmpC; test: Synergistic activity: MIC in the presence of Avibactam; conditions: row r16, in the presence of Avibactam @ 4 μg/mL
Procedure, shortened: (§1)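 Two subcultures from frozen isolate stocks preceded testing. Avibactam was then placed in microdilution plates at a fixed concentration or ratio, bacteria were added to 5×10^5 CFU/mL final, and MICs were determined per CLSI against 2-fold compound dilutions spanning 16-0.0125 μg/mL final.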

[2] = test system: Proteus mirabilis CMY-DHA; test: as above; conditions: row r36, in the presence of Avibactam @ 4 μg/mL
Procedure, shortened: as §1

[3] = test system: Enterobacter cloacae species complex Elevated AmpC; test: as above
Procedure, shortened: as §1

[4] = test system: Citrobacter freundii species complex Elevated AmpC; test: MIC against Elevated AmpC producing strains, compound alone; conditions: row r16
Description: (§2) Gram-negative and Gram-positive bacterial strains used during the in vitro minimum inhibitory concentration (MIC) determination were obtained either from the American Type Culture Collection (ATCC) or from clinical specimens. All strains were characterized genotypically and the respective antibiotic resistance markers for each strain were identified.
(§3) Isolates were sub-cultured onto appropriate media and stocked in skim milk at −80° C. Following two subcultures from frozen stock, in vitro antimicrobial susceptibility testing was performed using the Clinical and Laboratory Standards Institute (CLSI) broth microdilution method. Briefly, fresh cultures were suspended in culture media to give a final stock inoculum size of 5×10^7 colony forming units per milliliter of broth (CFU/mL). Test compounds were prepared at a stock solution concentration equal to 128 μg/mL, then diluted to give a final an initial working concentration of 32 μg/mL. 100 μL of the stock solutions were added to the first wells in a 96-well plate and were then diluted using a 2-fold dilution method to give a range of 32-0.025 μg/mL. 100 μL of the bacterial suspensions were then added to the 96-well plates to give a final working inoculum size of 5×10^5 CFU/mL. The final compound concentration range was 16-0.0125 μg/mL. […] MICs for comparator agents were determined using custom-designed, in-house prepared 96-well broth microdilution panels.

[5] = test system: Escherichia coli Elevated AmpC; test: as above
Description: as §2, §3

[6] = test system: Enterobacter cloacae species complex Elevated AmpC; test: as above
Description: as §2, §3

[7] = test system: Escherichia coli Isogenic TEM-26; test: MIC, CLSI broth microdilution
Procedure, shortened: (§4)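 Each strain carries identified resistance markers and was drawn from ATCC or clinical specimens. Susceptibility is tested per CLSI broth microdilution at a final inoculum of 5×10^5 CFU/mL, over a final compound range of 16-0.0125 μg/mL.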

[8] = test system: Escherichia coli Isogenic TEM-10; test: MIC, CLSI broth microdilution
Procedure, shortened: as §4

[9] = test system: Escherichia coli Empty pSMART plasmid; test: MIC, CLSI broth microdilution
Procedure, shortened: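 The read-out is the minimum inhibitory concentration determined by CLSI broth microdilution. Final compound levels ran from 16 to 0.0125 μg/mL in two-fold steps against about 5×10^5 CFU/mL of genotypically characterized bacteria.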

[10] = test system: Escherichia coli pSMART_Ecloacae_AmpC; test: MIC, CLSI broth microdilution
Procedure, shortened: as §4

[11] = in the presence of Avibactam @ 4 μg/mL
[12] = strain of row r7, in the presence of Avibactam @ 4 μg/mL
[13] = strain of row r20, in the presence of Avibactam @ 4 μg/mL

SMILES | MIC [1] [µg/mL] | MIC [2] [µg/mL] | MIC [3, 11] [µg/mL] | MIC [3, 12] [µg/mL] | MIC [3, 13] | MIC [4] [µg/mL] | MIC ([5]; strain of row r10) [µg/mL] | MIC ([5]; strain of row r11) [µg/mL] | MIC ([5]; strain of row r12) [µg/mL] | MIC ([5]; strain of row r13) [µg/mL] | MIC ([5]; strain of row r14) [µg/mL] | MIC ([5]; strain of row r15) [µg/mL] | MIC [6] [µg/mL] | MIC ([6]; strain of row r7) [µg/mL] | MIC ([6]; strain of row r20) [µg/mL] | MIC [7] [µg/mL] | MIC [8] [µg/mL] | MIC [9] [µg/mL] | MIC [10] [µg/mL]
Nc1nc(/C(=N/OC2(C(=O)O)CC2)C(=O)N[C@H]2CON(C3(C(=O)O)C[C@H](N4Cc5cc(O)c(O)cc5C4=O)C(=O)O3)C2=O)cs1 (stereo partly drawn) [Cmpd 28, (4S)-2-[(4S)-4-{[(2Z)-2-(2-amino-1,3-thiazol-4-yl)-2-{[(1-carboxycyclopropyl)oxy]imino}acetyl]amino}-3-oxo-1,2-oxazolidin-2-yl]-4-(5,6-dihydroxy-1-oxo-1,3-dihydro-2H-isoindol-2-yl)-5-oxooxolane-2-carboxylic acid] | 0.12 | 0.03 | 0.25 | 0.5 | 0.015 µg/mL | 1 (≈ 1.55 µM) | 0.06 (≈ 0.0928 µM) | 0.5 (≈ 0.773 µM) | 1 (≈ 1.55 µM) | 0.25 (≈ 0.387 µM) | 0.12 (≈ 0.186 µM) | 1 (≈ 1.55 µM) | 2 (≈ 3.09 µM) | 8 (≈ 12.4 µM) | 1 (≈ 1.55 µM) | 0.03 (≈ 0.0464 µM) | 0.03 (≈ 0.0464 µM) |  | 
CC(C)(O/N=C(\C(=O)N[C@@H]1C(=O)N2C(C(=O)[O-])=C(C[n+]3ccccc3)CS[C@H]12)c1csc(N)n1)C(=O)O [Ceftazidime, ceftazidime, reference compound] | 0.25 | 0.12 | 0.25 | 0.5 | 0.03 µg/mL | > 32 | 8 (≈ 14.6 µM) | 8 (≈ 14.6 µM) | 8 (≈ 14.6 µM) | 4 (≈ 7.32 µM) | 16 (≈ 29.3 µM) | 16 (≈ 29.3 µM) | 16 (≈ 29.3 µM) | > 32 | 16 (≈ 29.3 µM) | > 32 | > 32 | 0.25 (≈ 0.457 µM) | 
Nc1nc(/C(=N/OC2(C(=O)O)CCC(F)(F)CC2)C(=O)N[C@H]2CON(C3(C(=O)O)C[C@H](N4C(=O)c5cc(O)c(O)cc5C4=O)C(=O)O3)C2=O)cs1 (stereo partly drawn) [Cmpd 10, (4S)-2-[(4S)-4-{[(2Z)-2-(2-amino-1,3-thiazol-4-yl)-2-{[(1-carboxy-4,4-difluorocyclohexyl)oxy]imino}acetyl]amino}-3-oxo-1,2-oxazolidin-2-yl]-4-(5,6-dihydroxy-1,3-dioxo-1,3-dihydro-2H-isoindol-2-yl)-5-oxooxolane-2-carboxylic acid] | 0.03 | 0.5 | 0.06 | 0.12 | <=0.008 μg/mL | 0.25 (≈ 0.338 µM) | 0.015 (≈ 0.0203 µM) | 0.12 (≈ 0.162 µM) | 0.12 (≈ 0.162 µM) | 0.03 (≈ 0.0406 µM) | 0.03 (≈ 0.0406 µM) | 0.25 (≈ 0.338 µM) | 0.5 (≈ 0.677 µM) | 4 (≈ 5.42 µM) | 0.12 (≈ 0.162 µM) |  |  | ≤ 0.015 | 
Nc1nc(/C(=N/OC2(C(=O)O)CC2)C(=O)N[C@H]2CON(C3(C(=O)O)C[C@H](N4C(=O)c5cc(O)c(O)cc5C4=O)C(=O)O3)C2=O)cs1 (stereo partly drawn) [Cmpd 1, (4S)-2-[(4S)-4-{[(2Z)-2-(2-amino-1,3-thiazol-4-yl)-2-{[(1-carboxycyclopropyl)oxy]imino}acetyl]amino}-3-oxo-1,2-oxazolidin-2-yl]-4-(5,6-dihydroxy-1,3-dioxo-1,3-dihydro-2H-isoindol-2-yl)-5-oxooxolane-2-carboxylic acid] | 0.03 | 0.03 | 0.06 | 0.12 | <=0.008 μg/mL | 0.5 (≈ 0.757 µM) | 0.015 (≈ 0.0227 µM) | 0.25 (≈ 0.378 µM) | 0.5 (≈ 0.757 µM) | 0.06 (≈ 0.0908 µM) | 0.06 (≈ 0.0908 µM) | 0.12 (≈ 0.182 µM) | 0.5 (≈ 0.757 µM) | 2 (≈ 3.03 µM) | 0.25 (≈ 0.378 µM) | 0.0149 (≈ 0.0226 µM) | 0.0149 (≈ 0.0226 µM) |  | 0.03 (≈ 0.0454 µM)
